In one test the target is KDM6A (UTX) (Homo sapiens, UniProt O15550). Kind of test: Histone lysine demethylase AlphaLISA assay, KDM6A. It counts as biochemical. Particulars: read-out: KDM6A HDME Inhibition IC50. In a few lines:
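Enzyme 10 min pre-incubation; + compound (3% DMSO soln) 10 min; + biotin-H3 methyl-Lys peptide, 25 μM L-Asc, 10 μM α-KG, RT. Read: AlphaLISA acceptor beads, then streptavidin donor beads, RT, dark.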

For a further test, the target named is T1, KDM4B (JMJD2B) (Homo sapiens, UniProt O94953).
T1 construct: 2-500; purchased BPS; host or cells: Bac (baculovirus system)
T1 sequence (O94953 2-500): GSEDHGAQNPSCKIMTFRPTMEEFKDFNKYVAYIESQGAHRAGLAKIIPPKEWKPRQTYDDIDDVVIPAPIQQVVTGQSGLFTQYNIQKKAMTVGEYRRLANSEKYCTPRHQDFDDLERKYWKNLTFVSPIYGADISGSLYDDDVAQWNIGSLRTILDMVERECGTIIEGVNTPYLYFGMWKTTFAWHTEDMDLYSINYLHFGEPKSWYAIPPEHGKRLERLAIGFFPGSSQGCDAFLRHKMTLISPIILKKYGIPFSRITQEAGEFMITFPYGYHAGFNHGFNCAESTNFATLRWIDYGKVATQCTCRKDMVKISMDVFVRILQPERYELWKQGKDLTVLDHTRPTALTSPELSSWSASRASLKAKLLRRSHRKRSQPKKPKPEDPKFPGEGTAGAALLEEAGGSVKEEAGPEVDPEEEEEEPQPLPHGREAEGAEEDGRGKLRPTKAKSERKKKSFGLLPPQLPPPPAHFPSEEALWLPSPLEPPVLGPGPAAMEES
Kind of test: Histone lysine demethylase AlphaLISA assay, KDM4B. Type of test: biochemical. The settings on record: read-out: KDM4B HDME Inhibition IC50. How it is done: Assays are performed analogously to the protocol described by PerkinElmer (Roy et al. PerkinElmer Technical Note: AlphaLISA #12, April 2011)
Enzymes are dissolved in enzyme buffer and incubated for 10 min before being added to 3% DMSO solutions of compounds in enzyme buffer. Incubated for another 10 minutes, before substrate solution is added and the reaction mixture is incubated at room temperature. 10 μL acceptor beads, suspended in Epigenetic Buffer (Perkin Elmer AL008) from stock, are added and the suspension is incubated in the dark at room temperature, before a suspension of streptavidin donor beads (Perkin Elmer 6760002) in Epigenetic Buffer is added. After incubation at room temperature in the dark the plates are read.
BK9M3: Biotin-ARTKQTAR(KMe3)STGGKAPRKQ-NH2 (Caslo, Denmark) […]
Substrate Solution: Substrate, 25 μM L-Asc, and 10 μM α-KG in Buffer A.
On the technique in general: Alpha assays give light when donor and acceptor beads are brought close together.

A further test concerns the target T2, KDM4C (Homo sapiens, UniProt Q9H3R0).
T2 construct: Full length; host or cells: U2OS
T2 sequence (Q9H3R0 1-1056): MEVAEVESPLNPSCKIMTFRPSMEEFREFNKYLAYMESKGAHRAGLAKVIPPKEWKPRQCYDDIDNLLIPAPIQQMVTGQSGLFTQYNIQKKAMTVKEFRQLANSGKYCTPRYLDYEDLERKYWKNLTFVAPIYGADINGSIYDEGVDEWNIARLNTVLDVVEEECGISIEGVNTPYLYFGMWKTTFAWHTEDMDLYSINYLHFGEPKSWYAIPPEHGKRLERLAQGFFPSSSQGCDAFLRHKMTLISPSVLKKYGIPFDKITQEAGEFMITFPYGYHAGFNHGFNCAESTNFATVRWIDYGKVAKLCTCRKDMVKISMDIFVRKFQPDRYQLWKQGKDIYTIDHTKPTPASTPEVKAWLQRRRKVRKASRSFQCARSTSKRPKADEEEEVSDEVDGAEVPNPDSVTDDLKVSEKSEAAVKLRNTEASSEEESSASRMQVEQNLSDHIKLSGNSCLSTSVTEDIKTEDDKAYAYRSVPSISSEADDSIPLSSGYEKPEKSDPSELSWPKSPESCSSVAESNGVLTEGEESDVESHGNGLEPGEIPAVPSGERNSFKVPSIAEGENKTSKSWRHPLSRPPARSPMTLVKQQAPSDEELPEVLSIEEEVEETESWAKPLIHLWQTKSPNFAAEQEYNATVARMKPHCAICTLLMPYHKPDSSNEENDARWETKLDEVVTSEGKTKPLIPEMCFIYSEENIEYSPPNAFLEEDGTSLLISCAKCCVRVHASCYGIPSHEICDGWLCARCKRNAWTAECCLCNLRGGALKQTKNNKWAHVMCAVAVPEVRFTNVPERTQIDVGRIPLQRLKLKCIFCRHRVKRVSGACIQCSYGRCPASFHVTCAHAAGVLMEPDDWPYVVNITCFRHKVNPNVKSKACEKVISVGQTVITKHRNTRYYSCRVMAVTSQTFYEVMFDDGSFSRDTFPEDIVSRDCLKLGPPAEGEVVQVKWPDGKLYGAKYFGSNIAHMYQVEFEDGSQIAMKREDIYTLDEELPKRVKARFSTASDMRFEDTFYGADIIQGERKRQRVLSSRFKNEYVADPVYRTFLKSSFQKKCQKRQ
The test can be described thus: Histone lysine demethylase immunofluorescence assay, U2OS cells transfected with KDM4C. Type of test: cell-based. The settings on record: U2OS cells transfected with pCMVHA KDM4C; mark detected H3K9me3; 20 hours. How it is done: U2OS cells were seeded 24 hours before transfection. Transfection was performed with Fugene HD transfection reagent as recommended by the manufacturer. 6 hours after transfection, the cells were harvested and seeded into multi well plates into media containing compound. The media used was DMEM containing 10% FBS and pen/strep. 20 hours after incubation of cells with compounds, the cells were washed in PBS, harvested by fixation with formaldehyde 4% aqueous solution, and washed in PBS. Subsequently, the cells were permeabilized in PBS with 0.2% Triton X-100 for. Blocking was performed in PBS with 0.2% Triton X-100 and 5% FBS. The cells were incubated with primary antibodies in blocking solution over night at 4° C. The primary antibodies used in the assays were HA.11 (Covance, MMS-101P) and the antibody detecting the mark specified in the table below. After incubation with primary antibodies, the cells were washed with PBS, incubated with secondary antibodies (Alexa fluor 594 goat anti rabbit IgG, Invitrogen, A11012; Alexa flour 488 donkey anti mouse IgG, Invitrogen, A21202) and Hoechst, (Sigma, 33342) in blocking solution, and washed again with PBS. Finally, PBS was added and high throughput imaging and analysis were performed by an IN Cell Analyzer 1000 (GE Healthcare). The robot software analyzed individual cells and divided these into HA+ (transfected cells) and HA− (non-transfected cells). The IC50 values were based on an average measure of the staining of the mark specified in the table below in the transfected cells.

Chain of KDM6A (UTX) (O15550 919-1401): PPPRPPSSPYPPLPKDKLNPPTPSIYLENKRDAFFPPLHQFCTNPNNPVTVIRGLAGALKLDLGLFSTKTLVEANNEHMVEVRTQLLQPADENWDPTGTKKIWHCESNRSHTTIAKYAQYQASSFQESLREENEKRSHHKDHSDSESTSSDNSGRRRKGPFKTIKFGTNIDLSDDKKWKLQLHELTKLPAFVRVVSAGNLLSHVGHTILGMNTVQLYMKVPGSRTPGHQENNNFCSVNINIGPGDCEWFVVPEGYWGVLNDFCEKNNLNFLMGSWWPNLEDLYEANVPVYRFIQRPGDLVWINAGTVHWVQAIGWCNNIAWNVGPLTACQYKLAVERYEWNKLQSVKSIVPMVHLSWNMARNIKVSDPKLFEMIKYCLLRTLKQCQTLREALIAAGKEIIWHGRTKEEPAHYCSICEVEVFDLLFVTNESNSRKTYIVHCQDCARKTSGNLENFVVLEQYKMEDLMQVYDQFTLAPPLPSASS

As to `c1ccc(CN2CCC[C@H]2CNCc2cc(CNCC3CC3)ccn2)cc1` [Compound 16, {[(2S)-1-benzylpyrrolidin-2-yl]methyl}[(4-{[(cyclopropylmethyl)-amino]methyl}pyridin-2-yl)methyl]amine], the IC50 at KDM6A (UTX) and on KDM4B (JMJD2B) was over 2500 nM throughout.
As to `CCN(CCN(C)C)C(=O)CNCc1cc(CNC(=O)C(F)(F)F)ccn1` [Compound 25, N-[(2-{[({[2-(dimethylamino)ethyl]-(ethyl)carbamoyl}-methyl)amino]methyl}-pyrtdin-4-yl)methyl]-2,2,2-trifluoroacetamide], the IC50 at KDM6A (UTX) and on KDM4B (JMJD2B) was over 2500 nM each time.
Consider `C(=N\C1CC1)/c1ccnc(CNCCCCN2CCC2)c1` [Compound 44, N-{[2-({[4-(azetidin-1-yl)butyl]amino}methyl)-pyridin-4-yl]methylidene}-cyclopropanamine], for which the IC50 on KDM6A (UTX) and at KDM4B (JMJD2B) was over 2500 nM each time.
Turning to `CCN(CC)C(=O)CNCc1cc(/C=N/CCC2CCCCC2)ccn1` [Compound 57, 2-[({4-[[(2-cyclohexylethyl)imino]-methyl]pyridin-2-yl}methyl)amino]-N,N-diethylacetamide], the half-inhibitory concentration (IC50) (in general, the midpoint of a concentration-inhibition curve) is over 2500 nM on KDM6A (UTX) and under 250 nM at KDM4B (JMJD2B).
On the same counts, the results for `CCCCCCCC/N=C/c1ccnc(CNCC(=O)N(CC)CC)c1` [Compound 58, N,N-diethyl-2-[({4-[(octylimino)methyl]-pyridin-2-yl}methyl)amino]-acetamide] are over 2500 nM and over 2500 nM.
`CCN(CCN(C)C)C(=O)CNCc1cc(C2OCC(Cc3ccccc3)CN2C(=O)C(F)(F)F)ccn1` (centres unmarked) [Compound 90, 2-[({4-[5-benzyl-3-(trifluoroacetyl)-1,3-oxazinan-2-yl]pyridin-2-yl}methyl)amino]-N-[2-(dimethylamino)-ethyl]-N-ethylacetamide]: on KDM6A (UTX), the IC50 was over 2500 nM.
Same read-out and setting: to `CCN(CCN(C)C)C(=O)CNCc1cc(C2OCC3(CC3)CN2C(=O)C(F)(F)F)ccn1` (centres unmarked) [Compound 91, N-[2--(dimethylamino)-ethyl]-N-ethyl-2-[({4-[7-(trifluoroacetyl)-5-oxa-7-azaspiro[2.5]-octan-6-yl]pyridin-2-yl}methyl)amino]-acetamide] belongs over 2500 nM.
`CN(Cc1ccccc1F)C(=O)CNCc1cc(/C=N/CCO)ccn1` [Compound 92, N-[(2-fluorophenyl)methyl]-2-[({4-[[(2-hydroxyethyl)imino]-methyl]pyridin-2-yl}methyl)amino]-N-methylacetamide]: the IC50 on KDM6A (UTX) and at KDM4C was over 2500 nM in each case.
Consider `OCC/N=C/c1ccnc(CNCCc2ccccc2OCc2ccccc2)c1` [Compound 93, 2-[({2-[({2-[2-(benzyloxy)phenyl]-ethyl}amino)methyl]-pyridin-4-yl}methylidene)-amino]ethan-1-ol], for which the IC50 at KDM6A (UTX) and at KDM4C was over 2500 nM throughout.
In the case of `CCN(CCC#N)C(=O)CNCc1cc(/C=N/CCO)ccn1` [Compound 94, N-(2-cyanoethyl)-N-ethyl-2-[({4-[[(2-hydroxyethyl)imino]-methyl]pyridin-2-yl}methyl)amino]-acetamide], the 50% inhibitory concentration (IC50) on KDM6A (UTX) and against KDM4C was over 2500 nM in each case.
Consider `CC(C)C[C@H](NCc1cc(/C=N/CCO)ccn1)C(=O)N1CCCCC1` [Compound 95, (2S)-2-[({4-[[(2-hydroxyethyl)imino]-methyl]pyridin-2-yl}methyl)amino]-4-methyl-1-(piperidin-1-yl)pentan-1-one], for which the IC50 at KDM6A (UTX) and against KDM4C was over 2500 nM throughout.
`CN(C)CC1CCC(CNCc2cc(C=O)ccn2)CC1` (centres unmarked) [Compound 97, 2-{[({4-[(dimethylamino)-methyl]cyclohexyl}-methyl)amino]-methyl}pyridine-4-carbaldehyde]: the IC50 on KDM6A (UTX) was over 2500 nM; on KDM4C it was 250 to 2500 nM.
For `CN(C)C/C=C\CNCc1cc(C=O)ccn1` [Compound 99, 2-({[(2Z)-4-(dimethylamino)-but-2-en-1-yl]amino}methyl)-pyridine-4-carbaldehyde], the IC50 on KDM6A (UTX) and on KDM4C was over 2500 nM each time.
For `CN1CCC(CNCc2cc(C=O)ccn2)CC1` [Compound 100, 2-({[(1-methyl-piperidin-4-yl)methyl]amino}-methyl)pyridine-4-carbaldehyde], the figures for the IC50 on KDM6A (UTX) and at KDM4C were over 2500 nM and 250 to 2500 nM, respectively.
For the compound `CN(C)CCCCNCc1cc(C=O)ccn1` [Compound 108, 2-({[4-(dimethylamino)-butyl]amino}methyl)-pyridine-4-carbaldehyde], the IC50 was over 2500 nM at KDM6A (UTX) and 250 to 2500 nM against KDM4C.
For the compound `CN(C)CCNCc1cc(C=O)ccn1` [Compound 110, 2-({[2-(dimethylamino)-ethyl]amino}methyl)-pyridine-4-carbaldehyde], the IC50 at KDM6A (UTX) and on KDM4C was over 2500 nM in each case.
For `CCN(CC)CCCCNC(=O)CNCc1cc(C=O)ccn1` [Compound 112, N-[4-(diethylamino)-butyl]-2-{[(4-formylpyridin-2-yl)methyl]amino}-acetamide], the IC50 at KDM6A (UTX) and against KDM4C was over 2500 nM each time.
Regarding `CCN(CC)CCCCN(Cc1cc(C=O)ccn1)C(=O)C(F)(F)F` [Compound 115, N-[4-(diethylamino)butyl]-2,2,2-trifluoro-N-[(4-formylpyridin-2-yl)methyl]acetamide], the IC50 was over 2500 nM at KDM6A (UTX) and 250 to 2500 nM against KDM4C.
On the same counts, the results for `CCN(CC(C)(C)N(C)C)C(=O)CNCc1cc(C=O)ccn1` [Compound 118, N-[2-(dimethylamino)-2-methylpropyl]-N-ethyl-2-{[(4-formylpyridin-2-yl)methyl]amino}-acetamide] are over 2500 nM and 250 to 2500 nM.
For `CN(CC(=O)N1CCCCC1)Cc1cc(C=O)ccn1` [Compound 120, 2-({methyl[2-oxo-2-(piperidin-1-yl)ethyl]amino}-methyl)pyridine-4-carbaldehyde], in that order: over 2500 nM and over 2500 nM.

Source of the values: US9650339B2, “Inhibitors of histone demethylases” (Gilead Sciences, Inc., priority 2013, dated 2017).
